Reference: patent US5177082A, “Huperzines and analogs” (priority 1990, dated 1993)
Several values for one entry are separate records, joined by “and”; a condition that tells them apart may be missing. Equal entries are not always repeated. Entries after “also recorded” stand apart in the source; their conditions may differ. Where two headings read alike, the source gives them in different places.

Columns and labels:
patients = assay: Clinical side effects in patients with myasthenia gravis; assay type: in vivo, human
Procedure: (§1) Patients affected with myasthenia gravis (MG) with typical clinical symptoms which improved after using neostigmine were the subjects for testing and verification. […] It was generally used for at least ten days and each dosage was 0.4-0.5 mg. […] The injections were all given in the morning and on the morning prior to the injections anticholinesterase drugs were discontinued. Neither the patients nor the doctors knew which drug was being injected. Later, the symptoms, the duration of the improvements, if any, which were obtained by the drugs and the side effects were recorded. Based on these factors, the relative merits of the two drugs were established.

myasthenia gravis = assay: Clinical curative effects in 128 cases with myasthenia gravis; assay type: in vivo, human
Procedure: 128 patients with correctly diagnosed myasthenia gravis were used in the trial.
as §1
(+) (++) and (+++) was used as the standard for the seriousness of the symptoms, (+++) was the most serious.
1. Prolapse of eyelids: the tear width of the eye after use of the drug was measured. If there was an increase of 0.2 cm above that before use of the drug, then the effect was "+", if the increase was 0.4 cm then the effect was "++" and if the increase was 0.6 cm then the effect was "+++".
2. Impairment to eyeball activity: when the eyeball was basically fixed and immovable then it was "+++", those who had reoccuring major complaints and basically normal activities were "+" and those in an intermediate state were "++".
3. Difficulties in swallowing: when swallowing was still possible but there was a feeling of difficulty or there was slowing of the speed of the intake of food then the patient was treated as "+"; when the patient could swallow but it was very slow then the patient was "++"; when the patient was basically unable to swallow the rating was "+++".
4. Systemic myasthenia: patients who were able to walk but felt very exhausted were "+"; patients who were able to stand up and walk with difficulty a short distance in the ward or corridor were "++"; and patients who could not get out of bed were "+++".

memory functions of rats = assay: Memory function of preconditioned rats after 48 hours; assay type: in vivo, rat
Procedure: To evaluate the impact on the memory function, preconditioned animals going through 5 shock-free runs were used as learned animals. After 48 hours the drug-free (control) animals required 14.4±8.9 shocks to become learned.

Fetus of Pregnant Mice = conditions: mouse, in vivo
From the text: […]. […] The latter produced various types of externally observed deformities: short tails (44/97), short and no tails (18/97), back legs reversed (13/97), open eyes (7/97), exposed brains and spina bifida (1/97), sunken noses (1/97) and cleft palates (39/40). […].

Rats = conditions: rat, in vivo

C/C=C1\[C@H]2C=C(C)C[C@]1(N)c1ccc(=O)[nH]c1C2 [Huperzine A, (5R, 9R, 11E)-5-amino-11-ethylidene-5,6,9,10-tetrahydro-7-methyl-5,9-methanocycloocta[b]pyridin-2(1H)-one]
nausea vs neostigmine (patients; X^2 =15, P<0.001): more apt to cause nausea than was neostigmine | Abdominal pains, % (patients; control group): 5.9% | Abdominal pains, number of times (patients; control group): 21 | Blurred vision, % (patients; control group): 3.2% | Blurred vision, number of times (patients; control group): 11 | Changes in the rhythm of the heart, % (patients; control group): 3.1% | Changes in the rhythm of the heart, number of times (patients; control group): 11 | Disturbed sleep, % (patients; control group): 0.8% | Disturbed sleep, number of times (patients; control group): 3 | Dizziness, % (patients; control group): 20.3% | Dizziness, number of times (patients; control group): 72 | Drooling, % (patients; control group): 3.5% | Drooling, number of times (patients; control group): 9 | Increase in the number of bowel movements, % (patients; control group): 2.8% | Increase in the number of bowel movements, number of times (patients; control group): 10 | Muscle bundle quivering, % (patients; control group): 10.4% | Muscle bundle quivering, number of times (patients; control group): 37 | Myosis, % (patients; control group): 3.0% | Myosis, number of times (patients; control group): 13 | Nausea, % (patients; control group): 12.9% | Nausea, number of times (patients; control group): 46 | Perspiring, % (patients; control group): 7.0% | Perspiring, number of times (patients; control group): 25 | Tinnitus, % (patients; control group): 3.7% | Tinnitus, number of times (patients; control group): 13 | Vomiting, % (patients; control group): 2.8% | Vomiting, number of times (patients; control group): 10 | cases with side effects (patients; control patients, 69 cases): 45 cases | cases with side effects, % (patients; control patients, 69 cases, X^2 =3.58, P>0.05): 65.21% | side effects other than nausea vs neostigmine (patients; muscle bundle quivering, dizziness, perspiring, blurred vision): lower side effects for each of the other items than neostigmine; also recorded: statistically lower than neostigmine; also recorded: lower side effects in all other areas than neostigmine | Abdominal pains, % (patients; noncontrol group, 128 cases): 6.5% | Abdominal pains, number of times (patients; noncontrol group, 128 cases): 80 | Blurred vision, % (patients; noncontrol group, 128 cases): 1.8% | Blurred vision, number of times (patients; noncontrol group, 128 cases): 22 | Changes in the rhythm of the heart, % (patients; noncontrol group, 128 cases): 1.0% | Changes in the rhythm of the heart, number of times (patients; noncontrol group, 128 cases): 13 | Disturbed sleep, % (patients; noncontrol group, 128 cases): 0.4% | Disturbed sleep, number of times (patients; noncontrol group, 128 cases): 5 | Dizziness, % (patients; noncontrol group, 128 cases): 8.1% | Dizziness, number of times (patients; noncontrol group, 128 cases): 100 | Drooling, % (patients; noncontrol group, 128 cases): 2.0% | Drooling, number of times (patients; noncontrol group, 128 cases): 25 | Increase in the number of bowel movements, % (patients; noncontrol group, 128 cases): 0.5% | Increase in the number of bowel movements, number of times (patients; noncontrol group, 128 cases): 11 | Muscle bundle quivering, % (patients; noncontrol group, 128 cases): 4.0% | Myosis, % (patients; noncontrol group, 128 cases): 1.0% | Myosis, number of times (patients; noncontrol group, 128 cases): 13 | Nausea, % (patients; noncontrol group, 128 cases): 7.8% | Nausea, number of times (patients; noncontrol group, 128 cases): 95 | Perspiring, % (patients; noncontrol group, 128 cases): 4.8% | Perspiring, number of times (patients; noncontrol group, 128 cases): 59 | Tinnitus, % (patients; noncontrol group, 128 cases): 3.1% | Tinnitus, number of times (patients; noncontrol group, 128 cases): 38 | Vomiting, % (patients; noncontrol group, 128 cases): 1.2% | Vomiting, number of times (patients; noncontrol group, 128 cases): 15 | initial effect within 15-30 minutes, % (myasthenia gravis; 127 cases): 85.03% | initial effect within 15-30 minutes, No. of Cases (myasthenia gravis; 127 cases): 108 cases | optimal curative effect within 45-60 minutes, % (myasthenia gravis; 127 cases): 51.18% | optimal curative effect within 45-60 minutes, No. of Cases (myasthenia gravis; 127 cases): 65 cases | time of maximal effect, longest (myasthenia gravis; 127 cases): 240 min | time of maximal effect, shortest (myasthenia gravis; 127 cases): 18 min | initial effect time, average (myasthenia gravis; X ± SD, 127 cases): 21.92 ± 19.56 min and 21.92 min | time of maximal effect, average (myasthenia gravis; X ± SD, 127 cases): 50.34 ± 25.65 min and 50.34 min | average action time among the 40 cases (myasthenia gravis; cases exceeding 6 hours): 10.42 ± 5.80 h | longest action time among the 40 cases (myasthenia gravis; cases exceeding 6 hours): 24 h | shortest action time among the 40 cases (myasthenia gravis; cases exceeding 6 hours): 6 h | sustaining time of effect, shortest (myasthenia gravis; eye muscle type): 0.66 h | action time exceeded 6 hours, % (myasthenia gravis; human, in vivo): 31.64% | action time exceeded 6 hours, cases (myasthenia gravis; human, in vivo): 40 cases | action time reached 4-6 hours, % (myasthenia gravis; human, in vivo): 34.64% | action time reached 4-6 hours, cases (myasthenia gravis; human, in vivo): 44 cases | average action time (myasthenia gravis; human, in vivo): 5.94 ± 4.92 h | cases with marked effects (myasthenia gravis; human, in vivo): 71 cases | cases with marked effects, % (myasthenia gravis; human, in vivo): 55.46% | initial effect time, longest (myasthenia gravis; im injection): 222 min | physical symptom initial improvement time, longest (myasthenia gravis; im injection): 3.7 h | physical symptom initial improvement time, shortest (myasthenia gravis; im injection): 10 min | effect on myasthenia gravis condition (myasthenia gravis; im injection, 0.4 mg): effective anticholinesterase drug for treating myasthenia gravis; also recorded: able to definitely improve the myasthenia gravis condition | cases rated effective (myasthenia gravis; not marked): 56 cases | cases rated effective, % (myasthenia gravis; not marked): 43.75% | cases for which drug was effective (myasthenia gravis; of 128): 127 cases | cases for which drug was effective, % (myasthenia gravis; of 128): 99.21% | sustaining time of effect, longest (myasthenia gravis; systemic and eye muscle type): 24 h | shocks required to achieve the learned state (memory) (memory functions of rats; 0.03 mg/kg, ip, after 48 hours): 6.8±7.2 shocks | memory functions (Y-maze and brightness discrimination test) (memory functions of rats; normal male rats, 1/138 of the LD50 dosage): can strengthen the memory functions | number of embryo absorptions and stillborn fetuses vs control (Fetus of Pregnant Mice): markedly greater than those of the control group | abnormal embryos (Fetus of Pregnant Mice; ip): Neither of the two methods of giving the drug resulted in abnormal embryos | Body length of fetus (Fetus of Pregnant Mice; ip, 0.019 mg/kg): 2.2 ± 0.3 cm | Body weight of fetus (Fetus of Pregnant Mice; ip, 0.019 mg/kg): 1.24 ± 0.22 g | Number absorbed (Fetus of Pregnant Mice; ip, 0.019 mg/kg): 1.0 ± 1.7 | Number of fetuses (Fetus of Pregnant Mice; ip, 0.019 mg/kg): 8 ± 3 | number of stillbirths (Fetus of Pregnant Mice; ip, 0.019 mg/kg): 0.22 ± 0.44 | Body length of fetus (Fetus of Pregnant Mice; ip, 0.038 mg/kg): 2.2 ± 0.3 cm | Body weight of fetus (Fetus of Pregnant Mice; ip, 0.038 mg/kg): 1.2 ± 0.2 g | Number absorbed (Fetus of Pregnant Mice; ip, 0.038 mg/kg): 0.5 ± 0.8 | Number of fetuses (Fetus of Pregnant Mice; ip, 0.038 mg/kg): 8 ± 2 | number of stillbirths (Fetus of Pregnant Mice; ip, 0.038 mg/kg): 0.22 ± 0.44 | Body length of fetus (Fetus of Pregnant Mice; ip, 0.08 mg/kg): 2.3 ± 0.1 cm | Body weight of fetus (Fetus of Pregnant Mice; ip, 0.08 mg/kg): 1.2 ± 0.1 g | Number absorbed (Fetus of Pregnant Mice; ip, 0.08 mg/kg): 0 | Number of fetuses (Fetus of Pregnant Mice; ip, 0.08 mg/kg): 9 ± 2 | number of stillbirths (Fetus of Pregnant Mice; ip, 0.08 mg/kg): 0.17 ± 0.39 | Body length of fetus (Fetus of Pregnant Mice; ip, 0.19 mg/kg): 2.1 ± 0.2 cm | Body weight of fetus (Fetus of Pregnant Mice; ip, 0.19 mg/kg): 1.0 ± 0.2 g | Number absorbed (Fetus of Pregnant Mice; ip, 0.19 mg/kg): 0.73 ± 1.7 | Number of fetuses (Fetus of Pregnant Mice; ip, 0.19 mg/kg): 9 ± 4 | number of stillbirths (Fetus of Pregnant Mice; ip, 0.19 mg/kg): 0.13 ± 0.35 | Body length of fetus (Fetus of Pregnant Mice; ip, 0.38 mg/kg): 2.0 ± 0.3 cm | Body weight of fetus (Fetus of Pregnant Mice; ip, 0.38 mg/kg): 1.1 ± 0.3 g | Number absorbed (Fetus of Pregnant Mice; ip, 0.38 mg/kg): 2.1 ± 2.4 | Number of fetuses (Fetus of Pregnant Mice; ip, 0.38 mg/kg): 6 ± 4 | number of stillbirths (Fetus of Pregnant Mice; ip, 0.38 mg/kg): 0.8 ± 1.1 | Body length of fetus (Fetus of Pregnant Mice; ip, 0.39 mg/kg): 1.9 ± 0.1 cm | Body weight of fetus (Fetus of Pregnant Mice; ip, 0.39 mg/kg): 0.95 ± 0.18 g | Number absorbed (Fetus of Pregnant Mice; ip, 0.39 mg/kg): 0.75 ± 1.0 | Number of fetuses (Fetus of Pregnant Mice; ip, 0.39 mg/kg): 8 ± 4 | number of stillbirths (Fetus of Pregnant Mice; ip, 0.39 mg/kg): 0.9 ± 1.1 | Toxic Strength (Rats): 1.00
